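Dose response: 5 concentrations. Exposure: 48 h. Format: 96-well plates. Endpoint: linear interpolation; highest concentration if not reached. At the GI50, growth is halved. The concentration for full growth arrest is given as TGI.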
Experiments:
Test in all cases: NCI tumour cell line growth inhibition, 48 h
[1] = test system: HL-60(TB) leukemia
[2] = test system: M14 melanoma
[3] = test system: HS 578T breast
[4] = test system: SK-MEL-5 melanoma
[5] = test system: OVCAR-3 ovarian
[6] = test system: T-47D breast
[7] = test system: K-562 leukemia
[8] = test system: CCRF-CEM leukemia
[9] = test system: NCI-H23 lung
[10] = test system: SF-539 CNS
[11] = test system: UACC-62 melanoma
[12] = test system: COLO 205 colon
[13] = test system: OVCAR-8 ovarian
[14] = test system: SNB-19 CNS
[15] = test system: 786-0 renal
[16] = test system: SF-295 CNS
[17] = test system: NCI/ADR-RES ovarian
[18] = test system: RPMI-8226 leukemia
[19] = test system: UACC-257 melanoma
[20] = test system: SW-620 colon
[21] = test system: RXF 393 renal
[22] = test system: SK-MEL-28 melanoma
[23] = test system: NCI-H522 lung
[24] = test system: HOP-62 NSCLC
[25] = test system: TK-10 renal
[26] = test system: HT29 colon
[27] = test system: MOLT-4 leukemia
[28] = test system: OVCAR-5 ovarian
[29] = test system: SNB-75 CNS
[30] = test system: SN12C renal
[31] = test system: KM12 colon
[32] = test system: HCC-2998 colon
[33] = test system: OVCAR-4 ovarian
[34] = test system: U251 CNS
[35] = test system: HCT-15 colon
[36] = test system: NCI-H460 lung
[37] = test system: MDA-MB-435
[38] = test system: MCF7 breast
[39] = test system: BT-549 breast
[40] = test system: HCT-116 colon
[41] = test system: PC-3 prostate
[42] = test system: HOP-92 NSCLC
[43] = test system: NCI-H226 lung
[44] = test system: UO-31 renal
[45] = test system: IGROV1 ovarian
[46] = test system: MALME-3M melanoma
[47] = test system: SF-268 CNS
[48] = test system: SR leukemia
[49] = test system: ACHN renal
[50] = test system: DU-145 prostate
[51] = test system: MDA-MB-231 breast
[52] = test system: LOX IMVI melanoma
[53] = test system: A498 renal
[54] = test system: SK-MEL-2 melanoma
[55] = test system: A549 NSCLC
[56] = test system: EKVX NSCLC
[57] = test system: SK-OV-3 ovarian

CC1=C(CCCNS(C)(=O)=O)C2=C(C)C3(CC3)[C@@](C)(O)C(=O)C2=C1
GI50 [1]: 1.98 µM
TGI [1]: > 24 µM
GI50 [2]: 0.807 µM
TGI [2]: 2.75 µM
GI50 [3]: 2.73 µM
TGI [3]: 11.1 µM
GI50 [4]: 0.492 µM
TGI [4]: 1.98 µM
GI50 [5]: 0.89 µM
TGI [5]: 4.7 µM
GI50 [6]: 0.563 µM
TGI [6]: 6.02 µM
GI50 [7]: 61.8 µM
TGI [7]: > 100 µM
GI50 [8]: 44.1 µM
TGI [8]: > 100 µM
GI50 [9]: 0.269 µM
TGI [9]: 1.83 µM
GI50 [10]: 0.969 µM
TGI [10]: 3.26 µM
GI50 [11]: 1.47 µM
TGI [11]: 3.45 µM
GI50 [12]: 0.853 µM
TGI [12]: 2.69 µM
GI50 [13]: 0.518 µM
TGI [13]: 5.36 µM
GI50 [14]: 1.93 µM
TGI [14]: > 100 µM
GI50 [15]: 0.816 µM
TGI [15]: 6.32 µM
GI50 [16]: 0.634 µM
TGI [16]: 19.9 µM
GI50 [17]: 1.38 µM
TGI [17]: 18.1 µM
GI50 [18]: > 64.5 µM
TGI [18]: > 100 µM
GI50 [19]: 1.78 µM
TGI [19]: 4.41 µM
GI50 [20]: 55.5 µM
TGI [20]: > 100 µM
GI50 [21]: 0.199 µM
TGI [21]: 0.419 µM
GI50 [22]: 1.94 µM
TGI [22]: 4.75 µM
GI50 [23]: 2.09 µM
TGI [23]: 7.7 µM
GI50 [24]: 0.421 µM
TGI [24]: 2.33 µM
GI50 [25]: 2.61 µM
TGI [25]: 8.52 µM
GI50 [26]: 1.87 µM
TGI [26]: > 100 µM
GI50 [27]: 37.2 µM
TGI [27]: > 100 µM
GI50 [28]: 0.654 µM
TGI [28]: 7.62 µM
GI50 [29]: 0.342 µM
TGI [29]: 1.67 µM
GI50 [30]: 1.78 µM
TGI [30]: > 100 µM
GI50 [31]: 3.99 µM
TGI [31]: > 100 µM
GI50 [32]: 1.52 µM
TGI [32]: 4.51 µM
GI50 [33]: 0.9 µM
TGI [33]: 5.32 µM
GI50 [34]: 2.32 µM
TGI [34]: > 100 µM
GI50 [35]: 1.23 µM
TGI [35]: > 100 µM
GI50 [36]: 0.266 µM
TGI [36]: 0.812 µM
GI50 [37]: 1.99 µM
TGI [37]: 5.41 µM
GI50 [38]: 2.01 µM
TGI [38]: > 100 µM
GI50 [39]: 0.749 µM
TGI [39]: 3.89 µM
GI50 [40]: 0.863 µM
TGI [40]: > 100 µM
GI50 [41]: 1.68 µM
TGI [41]: > 100 µM
GI50 [42]: 0.303 µM
TGI [42]: 1.41 µM
GI50 [43]: 1.04 µM
TGI [43]: 5.79 µM
GI50 [44]: 0.5 µM
TGI [44]: 2.3 µM
GI50 [45]: 0.259 µM
TGI [45]: 1.15 µM
GI50 [46]: 0.776 µM
TGI [46]: 2.62 µM
GI50 [47]: 0.373 µM
TGI [47]: 14.2 µM
GI50 [48]: 36.2 µM
TGI [48]: > 100 µM
GI50 [49]: 2.14 µM
TGI [49]: 7.58 µM
GI50 [50]: 0.369 µM
TGI [50]: 17.4 µM
GI50 [51]: 1.63 µM
TGI [51]: 6.5 µM
GI50 [52]: 1.8 µM
TGI [52]: 6.34 µM
GI50 [53]: 1.05 µM
TGI [53]: 2.77 µM
GI50 [54]: 1.67 µM
TGI [54]: 4.13 µM
GI50 [55]: 1.64 µM
TGI [55]: 24.8 µM
GI50 [56]: 2.31 µM
TGI [56]: 7.72 µM
GI50 [57]: 0.304 µM
TGI [57]: 1.11 µM
